This note sets out measurements from patent US8952150B2, “Prostaglandin transporter inhibitors and uses thereof” (Albert Einstein College of Medicine of Yeshiva University, priority 2009, dated 2015).

The assay addresses rat PGT (Rattus norvegicus (Rat), UniProt Q00910). As to the kind of experiment: [3H]PGE2 uptake inhibition in MDCK cells stably transfected with rat PGT (percent inhibition and IC50). Type of assay: cell-based. Particulars: for Inh (% of Ctl) 0.1 μM: 0.1 μM compound; for Inh (% of Ctl) 0.1 μM / Inh (% of Ctl) 0.5 μM / Inh (% of Ctl) 2.5 μM / Inh (% of Ctl) 5 μM / Inh (% of Ctl) 1 μM / Inh (% of Ctl) 10 μM: inhibition of [3H]PGE2 uptake; for Inh (% of Ctl) 0.5 μM: 0.5 μM compound; for Inh (% of Ctl) 2.5 μM: 2.5 μM compound; for Inh (% of Ctl) 5 μM: 5 μM compound; for Inh (% of Ctl) 1 μM: 1 μM compound; for Inh (% of Ctl) 10 μM: 10 μM compound; for IC50: [3H]PGE2 uptake, MDCK cells stably transfected with rat PGT. The protocol: MDCK cells stably transfected with rat PGT (Endo et al., 2002) were seeded at 15-20% confluence on 24-well plates. The day on which the cells were seeded was considered day 1. PGE2 uptake experiments were conducted on day 4. All of the PGE2 uptake experiments were conducted at room temperature. On day 4, cells were washed twice with Waymouth buffer (135 mM NaCl, 13 mM H-Hepes, 13 mM Na-Hepes, 2.5 mM CaCl2, 1.2 mM MgCl2, 0.8 mM MgSO4, 5 mM KCl, and 28 mM D-glucose). Then 200 μL of Waymouth buffer containing [^3H]PGE2 (purchased from Perkin Elmer) was added to each well. At the designed time, the uptake of [^3H]PGE2 was stopped by aspiration of uptake buffer; this was followed by immediate washing twice with 500 μL of chilled Waymouth buffer. Cells were then lysed with 100 μL lysis buffer containing 0.25% SDS and 0.05 N NaOH. 1.5 mL of scintillation solution was added to each well, and intracellular [^3H]PGE2 was counted by MicroBeta Counter.
For preliminary testing of the compounds, 20 μL of Waymouth buffer containing the compound was added to each well; this was immediately followed by the addition of 180 μL of Waymouth buffer containing [^3H]PGE2. In each well, the total volume of uptake medium was 200 μL. Organic compounds were first dissolved in EtOH and then diluted in Waymouth buffer. The percent inhibition of [^3H]PGE2 uptake by compounds was calculated as [(uptakevehicle−uptakeinhibitor)÷(uptakevehicle)]×100.
IC50 was calculated by fitting an equation of y=m1−m1*(m0/(m2+m0)).

Consider `COC(=O)[C@@H](NC(=O)c1ccc(Nc2nc(NCCOCCOCCNC(=O)c3ccccc3)nc(Nc3ccc(O)cc3)n2)cc1)c1ccccc1` [compound 74], for which the “Inh (% of Ctl) 0.1 μM” value was 45.0 % of Ctl, the “Inh (% of Ctl) 0.5 μM” value was 51.6 % of Ctl, the “Inh (% of Ctl) 2.5 μM” value is given as 56.9 % of Ctl and the “Inh (% of Ctl) 5 μM” value is on record as 82.0 % of Ctl.
`O=C(NCCOCCOCCNc1nc(Nc2ccccc2)nc(Nc2ccc3cn[nH]c3c2)n1)c1ccccc1` [compound 75]: the “Inh (% of Ctl) 1 μM” value is given as 8.4 % of Ctl, the “Inh (% of Ctl) 5 μM” value is on record as 10.1 % of Ctl and the “Inh (% of Ctl) 10 μM” value is listed as 12.5 % of Ctl.
Regarding `CCCCCCCC(=O)c1ccc(Nc2nc(NCCOCCOCCNC(=O)c3ccccc3)nc(Nc3ccc(O)cc3)n2)cc1` [compound 76], the “Inh (% of Ctl) 0.5 μM” value is on record as 13.5 % of Ctl, the “Inh (% of Ctl) 2.5 μM” value was 35.9 % of Ctl and the “Inh (% of Ctl) 5 μM” value is recorded as 70.5 % of Ctl.
Regarding `O=C(NCCOCCOCCNc1nc(Nc2ccc(O)cc2)nc(Nc2ccc3c(c2)C(=O)NC3=O)n1)c1ccccc1` [compound 77], the “Inh (% of Ctl) 0.5 μM” value is 1.8 % of Ctl, the “Inh (% of Ctl) 2.5 μM” value is on record as 4.3 % of Ctl and the “Inh (% of Ctl) 5 μM” value was 23.2 % of Ctl.
For `O=C(NCCOCCOCCNc1nc(Nc2ccc(O)cc2)nc(Nc2cccc(C(=O)NCc3ccccc3)c2)n1)c1ccccc1` [compound 78], the “Inh (% of Ctl) 0.5 μM” value is reported as 15.5 % of Ctl, the “Inh (% of Ctl) 2.5 μM” value is on record as 24.5 % of Ctl and the “Inh (% of Ctl) 5 μM” value is recorded as 83.2 % of Ctl.
In the same order, the values of `O=C(NCCOCCOCCNc1nc(Nc2ccc(O)cc2)nc(Nc2ccc(C(=O)N[C@@H](C(=O)O)c3ccccc3)cc2)n1)c1ccccc1` [compound 79] are 5.4 % of Ctl, 29.2 % of Ctl and 54.9 % of Ctl.
In the same order, the values of `O=C(NCCOCCOCCNc1nc(Nc2ccc(O)cc2)nc(Nc2ccc(C(=O)N[C@H](C(=O)O)c3ccccc3)cc2)n1)c1ccccc1` [compound 80] are 0.7 % of Ctl, 21.8 % of Ctl and 57.2 % of Ctl.
Regarding `COc1cc(Nc2nc(NCCOCCOCCNC(=O)c3ccccc3)nc(Nc3ccc(O)cc3)n2)ccc1C(=O)NCc1ccccc1` [compound 81], the “Inh (% of Ctl) 0.5 μM” value is on record as 0.4 % of Ctl, the “Inh (% of Ctl) 2.5 μM” value was 16.2 % of Ctl and the “Inh (% of Ctl) 5 μM” value is given as 80.1 % of Ctl.
For `O=C(NCCOCCOCCNc1nc(Nc2ccc(O)cc2)nc(Nc2ccc(C(=O)NCc3ccccc3)c(C(F)(F)F)c2)n1)c1ccccc1` [compound 82], the “Inh (% of Ctl) 0.5 μM” value is on record as 2.1 % of Ctl, the “Inh (% of Ctl) 2.5 μM” value is 5.0 % of Ctl and the “Inh (% of Ctl) 5 μM” value is 47.6 % of Ctl.
One may read the IC50 as the concentration at which inhibition is half-maximal. As for `O=C(NCCOCCOCCNc1nc(Nc2ccc(O)cc2)nc(Nc2ccc(C(=O)NCc3ccccc3)cc2)n1)c1ccccc1` [compound 83], the “Inh (% of Ctl) 0.5 μM” value was 4.1 % of Ctl, the “Inh (% of Ctl) 2.5 μM” value is 10.4 % of Ctl, the “Inh (% of Ctl) 5 μM” value was 42.0 % of Ctl and the IC50 amounted to 609 nM.
Consider `O=C(NCCCCNc1nc(Nc2ccccc2)nc(Nc2ccc(O)cc2)n1)c1ccccc1` [compound 84], for which the “Inh (% of Ctl) 1 μM” value was 5.7 % of Ctl, the “Inh (% of Ctl) 5 μM” value is 13.7 % of Ctl and the “Inh (% of Ctl) 10 μM” value is given as 37.1 % of Ctl.
Taken in the same sequence, the figures for `O=C(NCCCCCNc1nc(Nc2ccccc2)nc(Nc2ccc(O)cc2)n1)c1ccccc1` [compound 85] were 7.6 % of Ctl, 12.2 % of Ctl and 49.6 % of Ctl.
Regarding `O=C(NCCOCCOCCNc1nc(Nc2ccc(O)cc2)nc(Nc2ccc(C(=O)NCc3ccccc3-c3ccccc3)cc2)n1)c1ccccc1` [compound 86], the “Inh (% of Ctl) 0.1 μM” value was 50.0 % of Ctl, the “Inh (% of Ctl) 0.5 μM” value is recorded as 70.7 % of Ctl, the “Inh (% of Ctl) 2.5 μM” value is on record as 81.4 % of Ctl and the “Inh (% of Ctl) 5 μM” value is listed as 86.4 % of Ctl. The same molecule had a 50% inhibitory concentration (IC50) of 870 nM.
Regarding `O=C(NCCOCCOCCNc1nc(Nc2ccc(O)cc2)nc(Nc2ccc(C(=O)NCc3cccc(Cl)c3)cc2)n1)c1ccccc1` [compound 87], the “Inh (% of Ctl) 0.1 μM” value is listed as 55.1 % of Ctl, the “Inh (% of Ctl) 0.5 μM” value is recorded as 71.8 % of Ctl, the “Inh (% of Ctl) 2.5 μM” value is on record as 83.5 % of Ctl and the “Inh (% of Ctl) 5 μM” value was 90.6 % of Ctl. In addition, the 50% inhibitory concentration (IC50) came out at 710 nM.
With `COc1cccc(CNC(=O)c2ccc(Nc3nc(NCCOCCOCCNC(=O)c4ccccc4)nc(Nc4ccc(O)cc4)n3)cc2)c1` [compound 88], the “Inh (% of Ctl) 0.1 μM” value was 61.8 % of Ctl, the “Inh (% of Ctl) 0.5 μM” value is recorded as 67.6 % of Ctl, the “Inh (% of Ctl) 2.5 μM” value is recorded as 82.6 % of Ctl and the “Inh (% of Ctl) 5 μM” value is recorded as 88.2 % of Ctl. The same molecule had an IC50 of 820 nM.
On to `O=C(NCCOCCOCCNc1nc(Nc2ccc(O)cc2)nc(Nc2ccc(C(=O)NCc3cccc4ccccc34)cc2)n1)c1ccccc1` [compound 89], for which the “Inh (% of Ctl) 0.5 μM” value is on record as 33.8 % of Ctl, the “Inh (% of Ctl) 2.5 μM” value is given as 76.5 % of Ctl and the “Inh (% of Ctl) 5 μM” value was 86.0 % of Ctl.
In the case of `O=C(NCCOCCOCCNc1nc(Nc2ccc(O)cc2)nc(Nc2ccc(C(=O)NCc3cccc(-c4ccccc4)c3)cc2)n1)c1ccccc1` [compound 90], the “Inh (% of Ctl) 0.5 μM” value is recorded as 23.4 % of Ctl, the “Inh (% of Ctl) 2.5 μM” value is reported as 60.6 % of Ctl and the “Inh (% of Ctl) 5 μM” value is 72.7 % of Ctl.
In the case of `O=C(NCCOCCOCCNc1nc(Nc2ccc(O)cc2)nc(Nc2ccc(C(=O)NCc3ccc(Cl)cc3)cc2)n1)c1ccccc1` [compound 91], the “Inh (% of Ctl) 0.1 μM” value was 60.8 % of Ctl, the “Inh (% of Ctl) 0.5 μM” value is 72.1 % of Ctl, the “Inh (% of Ctl) 2.5 μM” value is reported as 84.0 % of Ctl and the “Inh (% of Ctl) 5 μM” value is on record as 88.0 % of Ctl. The same molecule came in with a half-maximal inhibitory concentration (IC50) of 620 nM.
For `COc1ccc(CNC(=O)c2ccc(Nc3nc(NCCOCCOCCNC(=O)c4ccccc4)nc(Nc4ccc(O)cc4)n3)cc2)cc1` [compound 92], the “Inh (% of Ctl) 0.5 μM” value was 33.7 % of Ctl, the “Inh (% of Ctl) 2.5 μM” value is 71.3 % of Ctl and the “Inh (% of Ctl) 5 μM” value was 80.6 % of Ctl.
With `O=C(NCCOCCOCCNc1nc(Nc2ccc(O)cc2)nc(Nc2ccc(C(=O)NCc3ccc(-c4ccccc4)cc3)cc2)n1)c1ccccc1` [compound 93], the “Inh (% of Ctl) 0.5 μM” value is 24.6 % of Ctl, the “Inh (% of Ctl) 2.5 μM” value is recorded as 43.3 % of Ctl and the “Inh (% of Ctl) 5 μM” value was 51.1 % of Ctl.
In the same order, the values of `O=C(NCCOCCOCCNc1nc(Nc2ccc(O)cc2)nc(Nc2ccc(C(=O)NCc3ccc4[nH]ccc4c3)cc2)n1)c1ccccc1` [compound 94] are 36.0 % of Ctl, 66.7 % of Ctl and 76.1 % of Ctl.
Turning to `O=C(NCCOCCOCCNc1nc(Nc2ccccc2)nc(Nc2ccc3[nH]nnc3c2)n1)c1ccccc1` [compound 95], the “Inh (% of Ctl) 1 μM” value was 1.9 % of Ctl, the “Inh (% of Ctl) 5 μM” value is given as 23.4 % of Ctl and the “Inh (% of Ctl) 10 μM” value is 50.4 % of Ctl.
With `O=C(CCCCCCNc1nc(Nc2ccccc2)nc(Nc2ccc(O)cc2)n1)Nc1ccccc1` [compound 96], the “Inh (% of Ctl) 1 μM” value is 8.6 % of Ctl, the “Inh (% of Ctl) 5 μM” value is 23.9 % of Ctl and the “Inh (% of Ctl) 10 μM” value was 51.9 % of Ctl.
